Test results as given in PubChem BioAssay AID1918994 (Molecular Pharmacology Branch, DTP, NCI, 2023).

System: 292921-168-R-J2-PDC complex spheroid growth
Experiment: Anticancer human tumor 292921-168-R-J2-PDC patient-derived pancreatic carcinoma cell line growth inhibition [AhR]
Conditions: for IC50: curve of first compound; for viability, T/C: stronger effect = lower value
Procedure, shortened: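 Complex tumor spheroids co-cultured with HUVEC and human MSC stroma; AhR antagonists tested in combination with standard-of-care and investigational agents. Top concentration at or near clinical Cmax (else 10 microM), half-log dilutions; growth expressed as percent test/control.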

[1] = second compound 0.1 µM, first compound 0.00949 µM
[2] = second compound 0.1 µM, first compound 0.03 µM
[3] = second compound 0.1 µM, first compound 0.0949 µM
[4] = second compound 0.1 µM, first compound 0.3 µM
[5] = second compound 0.316 µM, first compound 0.00949 µM
[6] = second compound 0.316 µM, first compound 0.03 µM
[7] = second compound 0.316 µM, first compound 0.0949 µM
[8] = second compound 0.316 µM, first compound 0.3 µM
[9] = second compound 1 µM, first compound 0.00949 µM
[10] = second compound 1 µM, first compound 0.03 µM
[11] = second compound 1 µM, first compound 0.0949 µM
[12] = second compound 1 µM, first compound 0.3 µM
[13] = second compound 3.16 µM, first compound 0.00949 µM
[14] = second compound 3.16 µM, first compound 0.03 µM
[15] = second compound 3.16 µM, first compound 0.0949 µM
[16] = second compound 3.16 µM, first compound 0.3 µM
[17] = second compound 10 µM, first compound 0.00949 µM
[18] = second compound 10 µM, first compound 0.03 µM
[19] = second compound 10 µM, first compound 0.0949 µM
[20] = second compound 10 µM, first compound 0.3 µM
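Also: spheroids exposed to compounds for seven days after three days of growth.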

CC1COCCN1c1cc(C2(S(C)(=N)=O)CC2)nc(-c2ccnc3[nH]ccc23)n1 (stereo not given) + CC(CO)NC(=O)c1cc(-c2ccc(Cl)cc2)nn(-c2cnn(C)c2)c1=O
IC50 (second compound 0.1 µM): 3200 nM | IC50 (second compound 0.316 µM): 3000 nM | IC50 (second compound 1 µM): 3620 nM | IC50 (second compound 3.16 µM): 2940 nM | IC50 (second compound 10 µM): 1740 nM | viability, T/C (second compound 0.1 µM, first compound 0.0316 µM): 106% | viability, T/C (second compound 0.1 µM, first compound 0.1 µM): 114% | viability, T/C (second compound 0.1 µM, first compound 0.316 µM): 105% | viability, T/C (second compound 0.1 µM, first compound 1 µM): 82.9% | viability, T/C (second compound 0.1 µM, first compound 3.16 µM): 51% | viability, T/C (second compound 0.1 µM, first compound 10 µM): 34.4% | viability, T/C (second compound 0.316 µM, first compound 0.0316 µM): 107% | viability, T/C (second compound 0.316 µM, first compound 0.1 µM): 104% | viability, T/C (second compound 0.316 µM, first compound 0.316 µM): 105% | viability, T/C (second compound 0.316 µM, first compound 1 µM): 87.3% | viability, T/C (second compound 0.316 µM, first compound 3.16 µM): 48.4% | viability, T/C (second compound 0.316 µM, first compound 10 µM): 31.9% | viability, T/C (second compound 1 µM, first compound 0.0316 µM): 114% | viability, T/C (second compound 1 µM, first compound 0.1 µM): 107% | viability, T/C (second compound 1 µM, first compound 0.316 µM): 99.5% | viability, T/C (second compound 1 µM, first compound 1 µM): 89.4% | viability, T/C (second compound 1 µM, first compound 3.16 µM): 50.8% | viability, T/C (second compound 1 µM, first compound 10 µM): 31.2% | viability, T/C (second compound 3.16 µM, first compound 0.0316 µM): 102% | viability, T/C (second compound 3.16 µM, first compound 0.1 µM): 88.1% | viability, T/C (second compound 3.16 µM, first compound 0.316 µM): 94.9% | viability, T/C (second compound 3.16 µM, first compound 1 µM): 84.3% | viability, T/C (second compound 3.16 µM, first compound 3.16 µM): 47.7% | viability, T/C (second compound 3.16 µM, first compound 10 µM): 28.4% | viability, T/C (second compound 10 µM, first compound 0.0316 µM): 78.7% | viability, T/C (second compound 10 µM, first compound 0.1 µM): 74.2% | viability, T/C (second compound 10 µM, first compound 0.316 µM): 80.8% | viability, T/C (second compound 10 µM, first compound 1 µM): 63.9% | viability, T/C (second compound 10 µM, first compound 3.16 µM): 34.7% | viability, T/C (second compound 10 µM, first compound 10 µM): 25.4%

Nc1ncn(C2CC(O)C(CO)S2)c(=O)n1 (stereo not given) + CC(CO)NC(=O)c1cc(-c2ccc(Cl)cc2)nn(-c2cnn(C)c2)c1=O
IC50 (second compound 0.1 µM): > 300 nM | IC50 (second compound 0.316 µM): > 300 nM | IC50 (second compound 1 µM): > 300 nM | IC50 (second compound 3.16 µM): > 300 nM | IC50 (second compound 10 µM): > 300 nM | viability, T/C (second compound 0.1 µM, first compound 0.000949 µM): 94.1% | viability, T/C (second compound 0.1 µM, first compound 0.003 µM): 94% | viability, T/C [1]: 98.8% | viability, T/C [2]: 91% | viability, T/C [3]: 88.9% | viability, T/C [4]: 73.5% | viability, T/C (second compound 0.316 µM, first compound 0.000949 µM): 92.3% | viability, T/C (second compound 0.316 µM, first compound 0.003 µM): 95% | viability, T/C [5]: 96.3% | viability, T/C [6]: 92.6% | viability, T/C [7]: 82.7% | viability, T/C [8]: 77.7% | viability, T/C (second compound 1 µM, first compound 0.000949 µM): 97.7% | viability, T/C (second compound 1 µM, first compound 0.003 µM): 103% | viability, T/C [9]: 102% | viability, T/C [10]: 91.8% | viability, T/C [11]: 87.8% | viability, T/C [12]: 80.7% | viability, T/C (second compound 3.16 µM, first compound 0.000949 µM): 90.7% | viability, T/C (second compound 3.16 µM, first compound 0.003 µM): 88.3% | viability, T/C [13]: 89.4% | viability, T/C [14]: 83.2% | viability, T/C [15]: 82.7% | viability, T/C [16]: 72.2% | viability, T/C (second compound 10 µM, first compound 0.000949 µM): 71.9% | viability, T/C (second compound 10 µM, first compound 0.003 µM): 67.7% | viability, T/C [17]: 67.6% | viability, T/C [18]: 67.4% | viability, T/C [19]: 61.9% | viability, T/C [20]: 60.5%

O=C(C=Cn1cnc(-c2cc(C(F)(F)F)cc(C(F)(F)F)c2)n1)NNc1cnccn1 + CC(CO)NC(=O)c1cc(-c2ccc(Cl)cc2)nn(-c2cnn(C)c2)c1=O
IC50 (second compound 0.1 µM): 88.1 nM | IC50 (second compound 0.316 µM): 106 nM | IC50 (second compound 1 µM): 97.7 nM | IC50 (second compound 3.16 µM): 80.2 nM | IC50 (second compound 10 µM): 49.8 nM | viability, T/C [1]: 85.4% | viability, T/C [2]: 91% | viability, T/C [3]: 47% | viability, T/C [4]: 31.1% | viability, T/C (second compound 0.1 µM, first compound 0.949 µM): 22.5% | viability, T/C (second compound 0.1 µM, first compound 3 µM): 13.4% | viability, T/C [5]: 84.6% | viability, T/C [6]: 75.5% | viability, T/C [7]: 49.8% | viability, T/C [8]: 32% | viability, T/C (second compound 0.316 µM, first compound 0.949 µM): 20.2% | viability, T/C (second compound 0.316 µM, first compound 3 µM): 13.2% | viability, T/C [9]: 93.6% | viability, T/C [10]: 76.5% | viability, T/C [11]: 50.5% | viability, T/C [12]: 28.9% | viability, T/C (second compound 1 µM, first compound 0.949 µM): 19.1% | viability, T/C (second compound 1 µM, first compound 3 µM): 14.3% | viability, T/C [13]: 84.5% | viability, T/C [14]: 67.8% | viability, T/C [15]: 47% | viability, T/C [16]: 29.6% | viability, T/C (second compound 3.16 µM, first compound 0.949 µM): 17.7% | viability, T/C (second compound 3.16 µM, first compound 3 µM): 14.7% | viability, T/C [17]: 66.2% | viability, T/C [18]: 58.9% | viability, T/C [19]: 39.1% | viability, T/C [20]: 22.4% | viability, T/C (second compound 10 µM, first compound 0.949 µM): 18.5% | viability, T/C (second compound 10 µM, first compound 3 µM): 13.2%
